Bounds are passed on as bounds.

What all share (format): physicochemical
A short description of data set [1]: Dynamic vapor sorption (DVS) hygroscopicity. The note with it: for Hygroscopic degree (DVS): 25° C. The protocol:
Dynamic Vapor Sorption (DVS) analysis was conducted on the DVS advantage (Surface measurement system, United Kingdom) analyzer at 25° C. and relative humidity of 0-90%.
10 mg of sample was placed in the wire mesh steam sorption balance pan and attached to the DVS-advantage dynamic vapor adsorption balance by the Surface Measurement Systems. […] After the completion of the sorption cycle, the sample was dried using the same procedure, during which the relative humidity was returned to a relative humidity […] all the time. The change in weight during the sorption/desorption cycle (repetition of 3 times) was recorded to determine the hygroscopicity of the sample.

Data set [2] in a line: Behaviour under long-term, accelerated and harsh storage conditions (moisture absorption, stability of form).
Data set [3] is described as follows: Comparative test of stability (HPLC purity on storage) of amorphous form and crystalline polymorphs of the hydrochloride salt (Test Example 2). The note with it: listed as HCl amorphous. The protocol: High performance liquid chromatography (HPLC) was conducted on the Agilent 1100/1200 series HPLC Systems (Agilent, USA) analyzer for the purpose of purity and content analysis including stability test and the like. The analysis conditions of the HPLC are as follows.
To compare the stability of amorphous hydrochloride salt form and crystalline hydrochloride salt polymorphs, each of samples of the polymorphs and amorphous form of the hydrochloride salt of the compound of chemical formula (1) prepared in Examples 4 to 6 was left for 4 weeks under long term conditions (e.g., temperature of 25±2° C. and relative humidity of 60±5%) and accelerated conditions (e.g., temperature of 40° C. and relative humidity of 75%). Each sample was analyzed by high performance liquid chromatography (HPLC) according to the purity measurement conditions of the compound of chemical formula (1).

Data set [4] is described as follows: Comparative test of solubility of amorphous form and crystalline polymorphs of the hydrochloride salt (Test Example 1). The note with it: 25° C., loading of 1.0 mg/mL, LOD 0.1 μg/mL, based on compound of formula (1), listed as HCl cryst. hydrate. Here is the method:
To compare the solubility of amorphous hydrochloride salt form and crystalline hydrochloride salt polymorphs, each of the polymorphs and amorphous form of the hydrochloride salt of the compound of chemical formula (1) prepared in Examples 4 to 6 was used to prepare samples under the following conditions according to non-ionized water and acidity (pH). Thereafter, each solution was analyzed by high performance liquid chromatography (HPLC) according to the measurement conditions of the content of the compound of chemical formula (1) to measure the dissolved amount (LOD: 0.1 μg/mL) based on the compound of chemical formula (1).
Specifically, 5 mg of each polymorph was added to 5 ml of water and mixed using a Voltamixer at 20-25° C. Thereafter, the filtrate obtained by filtrating using GH Polypro membrane Acrodisc, PALL (pore size 0.2 μm) was diluted with a dilution solvent for high performance liquid chromatography (HPLC) at a ratio of 1/100, to obtain the samples.

As for `C=CC(=O)N1CCC(Oc2cc3c(Nc4ccc(Cl)c(Cl)c4F)ncnc3cc2OC)CC1` [Example 2, 1-(4-(4-(3,4-dichloro-2-fluorophenylamino)-7-methoxyquinazolin-6-yloxy)piperidin-1-yl)prop-2-en-1-one], the results for the “Hygroscopic degree (DVS)” value in data set [1] (relative humidity range of 10%-50%) and in data set [1] (relative humidity range of 50-90%) were 0.3-0.5% and “about 3%”, respectively.
On to `C=CC(=O)N1CCC(Oc2cc3c(Nc4ccc(Cl)c(Cl)c4F)ncnc3cc2OC)CC1` [Example 3, 1-(4-(4-(3,4-dichloro-2-fluorophenylamino)-7-methoxyquinazolin-6-yloxy)piperidin-1-yl)prop-2-en-1-one], for which the “Stability under storage conditions (in words)” value in data set [2] (long-term (25° C., 60% RH), accelerated (40° C., 75% RH) and harsh (60° C.) conditions) is given as “sufficiently stable”.
Take `C=CC(=O)N1CCC(Oc2cc3c(Nc4ccc(Cl)c(Cl)c4F)ncnc3cc2OC)CC1` [Example 6, 1-(4-(4-(3,4-dichloro-2-fluorophenylamino)-7-methoxyquinazolin-6-yloxy)piperidin-1-yl)prop-2-en-1-one]: the “Hygroscopic degree (DVS), in words” value in data set [1] (relative humidity range of 10-90%) is “very high hygroscopic degree”. Further, in data set [3] (25 ± 2° C., 60 ± 5% RH), the “Purity (HPLC, %) 3 days” value came to 98.0%; the “Purity (HPLC, %) Start” value is given as 98.0%; the “Purity (HPLC, %) Week 1” value is 98.0%; the “Purity (HPLC, %) Week 2” value is reported as 97.9%. Moreover, the “Purity (HPLC, %) Week 4” value in data set [3] (25 ± 2° C., 60 ± 5% RH) was 97.9%. In data set [3] (40 ± 2° C., 75 ± 5% RH), the “Purity (HPLC, %) 3 days” value was found to be 97.9%; the “Purity (HPLC, %) Start” value was 98.0%; the “Purity (HPLC, %) Week 1” value is listed as 97.9%; the “Purity (HPLC, %) Week 2” value is listed as 97.8%. Further, the “Purity (HPLC, %) Week 4” value in data set [3] (40 ± 2° C., 75 ± 5% RH) is 97.6%. Also, the “Moisture absorption on storage” value in data set [2] (25° C., 60% relative humidity and 40° C., 75% relative humidity) is listed as 7-9%.
As to `C=CC(=O)N1CCC(Oc2cc3c(Nc4ccc(Cl)c(Cl)c4F)ncnc3cc2OC)CC1` [Example 4, 1-(4-(4-(3,4-dichloro-2-fluorophenylamino)-7-methoxyquinazolin-6-yloxy)piperidin-1-yl)prop-2-en-1-one], the “Solubility, Water” value in data set [4] is recorded as “<LOD”.
For `C=CC(=O)N1CCC(Oc2cc3c(Nc4ccc(Cl)c(Cl)c4F)ncnc3cc2OC)CC1` [Example 5, 1-(4-(4-(3,4-dichloro-2-fluorophenylamino)-7-methoxyquinazolin-6-yloxy)piperidin-1-yl)prop-2-en-1-one], the “Moisture absorption on storage (in words)” value in data set [2] (long-term (25° C., 60% RH) and accelerated (40° C., 75% RH) conditions) is reported as “did not absorb moisture”.

The values are drawn from US11883402B2, “Crystalline forms of a quinazoline compound and its hydrochloride salts” (Hanmi Pharmaceutical Co., Ltd., priority 2018, dated 2024).
